Source: patent US20110008264A1, “METHOD FOR REPELLING A RODENT, METHOD FOR CAPTURING A RODENT AND RODENT REPELLENT” (Earth Chemical Co., Ltd., priority 2006, published 2011)

Assays:
[1] = system: mouse (ddY male mouse); assay: Inhibition zone formation around impregnated filter paper in rearing cage (Test Example 6); assay type: in vivo; settings: 50 μl on filter paper, 16 mice; for Formation rate of inhibition zone: time until inhibition zone is formed
Description: A total of 16 animals of a mouse (ddY male mouse of 7 weeks of age) were released in a rearing cage (16 cm in breadth, 23 cm in length and 20 cm in height). Thereafter, a piece of filter paper (1 cm in width and 10 cm in length) impregnated with 50 μl of essential oil shown in the following Table 4 or 50 μl of water was hung down from the center of the ceiling of the rearing cage, and a period of time until a state in which mice gathered in the periphery in the rearing cage but mice are not present around the filter paper (inhibition zone) is formed was measured.

[2] = system: rodent (mouse); assay type: in vivo; settings: Test Example 1, text; azodicarbonamide at 0.2 g, nitrocellulose at 23 g

SMILES | Presence of inhibition zone [1] | Formation rate of inhibition zone [1] [s] | Repelled rodents in comparison with the control [2]
CCCCCCOC(C)=O [Hexyl acetate] | present | 24 | –
NC(=O)N=NC(N)=O [azodicarbonamide] | – | – | a distinct difference was observed in comparison with the control
Cc1ccc(C(C)C)cc1 [p-Cymene] | present | 50 | –
CC1=CCC(C(C)C)=CC1 [γ-Terpinene] | present | 23 | –
